Test results from paper PMC11279465, “Dual Inhibitors of P-gp and Carbonic Anhydrase XII (hCA XII) against Tumor Multidrug Resistance with Piperazine Scaffold” (Molecules, 2024).

Experiments:
P-gp = P-gp (Homo sapiens, UniProt P08183); assay: Calcein-AM transport inhibition in MDCK-MDR1 cells; format: cell-based; parameters: expressed in transfected cells; host or cells: MDCK (Madin-Darby Canine Kidney); conditions: mean ± SEM
Excerpt: The MDR interaction potency of these compounds was studied by detecting the inhibition of the P-gp-, MRP1- or BCRP-mediated efflux of a substrate in cells overexpressing the studied pumps. In detail, we measured the following: (i) the transport inhibition of the profluorescent probe calcein-AM (P-gp and MRP1 substrate) in MDCK-MDR1 and MDCK-MRP1 cells (P-gp- and MRP1-overexpressing cells, respectively); (ii) the transport inhibition of the fluorescent probe Hoechst 33342 (BCRP substrate) in MDCK-BCRP cells (BCRP-overexpressing cells).
Experiments were performed as previously described. MDCK-MDR1 and MDCK-MRP1 cells (30,000 cells per well) were seeded in a 96-well black CulturePlate in 100 µL of medium and allowed to grow overnight in a humidified atmosphere of 5% CO2 at 37 °C. Tested compounds (100 µL) in a final concentration ranging between 0.01 nM and 100 µM, solubilized in culture medium, were added to the monolayers. After 30 min in a humidified atmosphere of 5% CO2 at 37 °C, 100 µL of Calcein-AM in phosphate-buffered saline (PBS) was added to obtain a final concentration of 2.5 µM and the plate was incubated for 30 min. All wells were washed 3 times with 100 µL ice-cold PBS and read with Victor3 (PerkinElmer) after adding 100 µL of cold PBS. Excitation and emission wavelengths of 485 nm and 535 nm, respectively, were used. In these experimental conditions, cell Calcein-AM accumulation in the absence and in the presence of each tested compound was evaluated and compared to the basal level of fluorescence derived from untreated cells. The increase in fluorescence from the baseline level was measured in the treated wells. EC50 values were determined by fitting the rate of fluorescence increase versus log[dose].

K562/DOX cells = assay: Intrinsic cytotoxicity (MTT); format: cell-based, human; conditions: compound alone at 3 µM, 72 h
Description: Compounds were first studied at 1 and 3 µM concentrations to evaluate their intrinsic cytotoxicity in both the parental K562 and the resistant K562/DOX cell lines, using the MTT assay. All compounds had no intrinsic cytotoxicity in the parental line.
The intrinsic toxicity of the studied compounds was determined by an MTT assay. K562 and K562/DOX were exposed for 72 h with compounds at 1 and 3 µM concentrations while HT29, A549, HT29/DOX and A549/DOX cells were incubated for 48 h with compounds used at different concentrations (from 10 nM to 50 µM). The percentage of growth compared to the untreated control was transformed into histograms with the GraphPad Prism 5 program.

Chain of P-gp (P08183 whole entry): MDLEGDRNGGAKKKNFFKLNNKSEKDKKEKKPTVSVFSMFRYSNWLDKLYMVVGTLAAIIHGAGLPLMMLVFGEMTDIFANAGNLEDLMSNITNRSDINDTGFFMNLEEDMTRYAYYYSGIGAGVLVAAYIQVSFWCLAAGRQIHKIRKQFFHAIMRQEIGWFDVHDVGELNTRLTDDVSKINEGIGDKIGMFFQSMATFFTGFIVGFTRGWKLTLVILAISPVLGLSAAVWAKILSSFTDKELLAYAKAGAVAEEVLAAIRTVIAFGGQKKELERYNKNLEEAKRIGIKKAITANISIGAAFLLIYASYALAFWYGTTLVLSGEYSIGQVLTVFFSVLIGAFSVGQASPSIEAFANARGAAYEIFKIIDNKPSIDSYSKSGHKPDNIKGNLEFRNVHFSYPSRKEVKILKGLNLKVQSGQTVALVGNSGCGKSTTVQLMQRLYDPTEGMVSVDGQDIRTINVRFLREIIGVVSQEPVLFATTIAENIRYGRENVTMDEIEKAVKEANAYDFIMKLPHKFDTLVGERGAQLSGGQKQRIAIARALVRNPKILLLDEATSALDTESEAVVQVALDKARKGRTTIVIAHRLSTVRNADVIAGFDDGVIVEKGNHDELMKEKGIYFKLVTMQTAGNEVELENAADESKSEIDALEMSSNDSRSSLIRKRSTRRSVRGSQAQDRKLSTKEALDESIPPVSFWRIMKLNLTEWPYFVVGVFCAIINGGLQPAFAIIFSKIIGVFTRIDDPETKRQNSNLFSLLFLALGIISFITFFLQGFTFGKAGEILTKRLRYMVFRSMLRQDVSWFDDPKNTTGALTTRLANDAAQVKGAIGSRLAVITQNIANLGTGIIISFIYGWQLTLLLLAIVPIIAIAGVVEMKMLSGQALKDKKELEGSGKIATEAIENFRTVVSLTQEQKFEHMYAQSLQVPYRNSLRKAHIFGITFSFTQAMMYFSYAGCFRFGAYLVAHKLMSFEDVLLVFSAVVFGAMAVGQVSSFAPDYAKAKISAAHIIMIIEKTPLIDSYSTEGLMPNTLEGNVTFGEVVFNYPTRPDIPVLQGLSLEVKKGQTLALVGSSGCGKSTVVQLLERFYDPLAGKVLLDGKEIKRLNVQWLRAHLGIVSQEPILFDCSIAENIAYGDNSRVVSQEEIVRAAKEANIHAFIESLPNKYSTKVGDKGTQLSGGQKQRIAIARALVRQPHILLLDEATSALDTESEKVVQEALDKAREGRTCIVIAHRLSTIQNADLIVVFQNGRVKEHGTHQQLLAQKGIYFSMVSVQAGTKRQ

Compound | EC50 (P-gp) [µM] | reduction of cellular viability (K562/DOX cells)
COc1ccc(C(CCCN2CCN(CCCOc3ccc4oc(=O)ccc4c3)CC2)c2ccc(OC)cc2)cc1 [Compound 32, 6-(3-(4-(4,4-Bis(4-methoxyphenyl)butyl)piperazin-1-yl)propoxy)-2H-chromen-2-one] | 4.53 ± 0.17 | –
COc1ccc(C(CCCN2CCN(CCCCOc3ccc4ccc(=O)oc4c3)CC2)c2ccc(OC)cc2)cc1 [Compound 27, 7-(4-(4-(4,4-Bis(4-methoxyphenyl)butyl)piperazin-1-yl)butoxy)-2H-chromen-2-one] | 3.99 ± 0.11 | 30–50%
